The nature of series [1]: Four-way crossover pharmacokinetic study of omeprazole (limited colonic absorption). Particulars: human, plasma, 20 mg; for AUC: mean±SD. The class given is in vivo. An excerpt:
Nine healthy subjects were entered into the study with an intention to complete treatment of at least six subjects. […] A period of at least four days for washout was allowed between dosing.

The nature of series [2]: Two-period crossover study in GERD patients: plasma omeprazole PK. The settings on record: for AUC: human, plasma, oral, read-out: median AUC (25-75%). The class given is in vivo, human. Here is the method: (§1) Sixteen patients with a history of GERD, all of whom experienced recurrent nighttime reflux for at least three months while taking proton pump inhibitors, were enrolled. […] Ambulatory 24-hour gastric pH was recorded and blood samples taken for PK analysis on days 6-7. Following a seven day washout the patients were crossed over to the alternate treatment. NAB was defined as an intra-gastric pH<4 for more than 1 hour between 22:00 hour and 06:00 hour (10:00 PM and 6:00 AM).

Series [3] concerns NAB (intra-gastric pH<4 for more than 1 hour between 22:00 and 06:00). In words: Two-period crossover study in GERD patients: ambulatory 24-hour gastric pH, NAB. Format: in vivo, human. As to the method: as §1, with “enrolled. The study was an open label crossover study in which 14 of the 16 patients participated in each of two treatment arms separated by a washout period.” for “enrolled.”

For the next series, the system named is pH of the stomach. The settings on record: cited from earlier work.
A further series deals with basal acid output. The settings on record: 20 mg dose, healthy volunteers and patients, cited from earlier work.
For series [4] the following is noted: pH 11 phosphate buffer; cited from earlier work.
A further series concerns nocturnal heartburn. Particulars: cited from earlier work.

Where two headings read alike, the source gives them in different places.

On to `COc1ccc2[nH]c([S+]([O-])Cc3ncc(C)c(OC)c3C)nc2c1` (stereo not drawn) [omeprazole, 5-methoxy-2-[[(4-methoxy-3,5-dimethyl-2-pyridinyl)methyl]sulfinyl]-1H-benzimidazole], for which the AUC (usually the area under the concentration-time curve, a measure of exposure) in series [1] (iv, (iv) 20 mg omeprazole delivered to the ascending colon via ENTERION capsule) turned out to be 242 ± 323 ng·h/mL; in series [1] (oral, (i) SCR: 20 mg omeprazole divided into 17 doses at 30 minute intervals (8 hr), fed state, n = 7), 568 ± 727 ng·h/mL; in series [1] (oral, (ii) 20 mg omeprazole in the fed state, n = 7) it was 849 ± 999 ng·h/mL; in series [1] (oral, (iii) 20 mg omeprazole in the fasted state, n = 7), 969 ± 1090 ng·h/mL; in series [2] (20 mg at dinner + 20 mg four hours later for six days, all patients, n = 14), 1860 ng·h/mL; in series [2] (20 mg at dinner + 20 mg four hours later, patients with NAB (n = 5)), 1670 ng·h/mL. The AUC in series [2] (20 mg at dinner + 20 mg four hours later, patients without NAB (n = 9)) came to 1910 ng·h/mL. The Tmax (usually the time from dosing to the highest level) in series [1] (iv, (iv) Colonic) came to 1.8 h; in series [1] (oral, (i) SCR) it was 4.9 h; in series [1] (oral, (ii) Fed), 3.7 h. Moreover, the bioavailability – broadly, the share of a dose that reaches the circulation, judged against a reference dose that is usually intravenous – was 22 ± 12% in series [1] (iv, (iv) Colonic, compared to fasted state, read-out: Relative bioavailability); 96 ± 7% in series [1] (oral, 20 mg fed, one of the subjects removed from the analysis, read-out: relative bioavailability in the fed state compared to fasting); 61 ± 15% in series [1] (oral, (i) SCR, fed state, compared to fasted state, read-out: Relative bioavailability); 90 ± 16% in series [1] (oral, (ii) Fed, compared to fasted state, read-out: Relative bioavailability); 100% in series [1] (oral, (iii) Fasted (reference arm), read-out: Relative bioavailability); 58% in series [1] (other: ENTERION capsule activated in the terminal ileum, one subject, ENTERION capsule activated in the terminal ileum, read-out: relative bioavailability compared to fasted state). The “patients who did not start absorbing omeprazole until 4-5 hours after the initial dose” value in series [2] (20 mg at dinner + 20 mg 4 hours later, of the 14 patients (FIG. 7B)) is recorded as 36%. Also, the “blood levels of omeprazole between 2:00 and 3:00 AM” value in series [2] (40 mg single dose arm, the three patients who experienced NAB) is given as “undetectable levels”. In addition, the “time until start of omeprazole absorption after the initial 20 mg dose” value in series [2] (five of the 14 patients of the two dose arm (FIG. 7B)) fell in the range of 4 to 5 h. The “patients who experienced inhibition of NAB” value in series [3] (20 mg at dinner + 20 mg 4 hours later, the 9 patients with two-dose absorption profile (FIG. 7A)) was 100%. Also, the “occurrence of NAB” value is listed as “Three of the patients experienced NAB” in series [3] (40 mg single dose 30 minutes before dinner for six days, 14 patients); “none experienced NAB” in series [3] (two dose arm, nine patients who achieved blood levels from both doses); “All five of those patients experienced NAB” in series [3] (two dose arm, the five patients with delayed absorption). Besides, the “nighttime pH control of the stomach, time with pH>4” value in the series on pH of the stomach (40 mg before breakfast) is on record as 24 % of the time; in the series on pH of the stomach (40 mg before dinner), 69 % of the time; in the series with pH of the stomach (twice-daily (BID) dosing, 20 mg before breakfast and dinner) it was 80 % of the time. The “decrease in basal acid output” value in the series with basal acid output (2-6 hours after dosing) was 78%; in the series with basal acid output (24 hours after dosing), 50%-80%. In series [4], the “stability at pH 11” value is “stable at pH 11”.

In the case of `COc1ccc2nc([S@@+]([O-])Cc3ncc(C)c(OC)c3C)[nH]c2c1` [esomeprazole], the “GERD patients with relief of nocturnal heartburn” value in the series on nocturnal heartburn is recorded as 50%.

(Values after US20160038411A1, “PULSATILE GASTRIC RETENTIVE DOSAGE FORMS” (Depomed, Inc., priority 2007, published 2016).)
